Common to all, as to type: in vivo
One data set relates to Setaria viridis. In words: Post-emergence herbicidal action. The procedure: (§1) Seeds of monocotyledonous and dicotyledonous weed plants and crop plants are laid out in wood fiber pots in sandy loam, covered with soil and cultivated in a greenhouse under good growth conditions. 2 to 3 weeks after sowing, the test plants are treated at the one-leaf stage. The compounds according to the invention, formulated in the form of wettable powders (WP) or as emulsion concentrates (EC), are then sprayed onto the green parts of the plants in the form of an aqueous suspension or emulsion at a water application rate equating to 600 to 800 l/ha, with addition of 0.2% wetting agent. After the test plants have been left to stand in the greenhouse under optimal growth conditions for about 3 weeks, the action of the preparations is assessed visually in comparison to untreated controls (herbicidal action in percent (%): 100% activity=the plants have died, 0% activity=like control plants). Here, for example, compounds No. 1-163, 1-171, 1-172, 1-173, 1-254, 1-283, 1-284, 1-293, 1-294 and 1-334, at an application rate of 80 g/ha, have an activity of at least 80% against Abutilon theophrasti and Amaranthus retroflexus.
(§2) In the tables below, the properties of the compounds according to the invention are compared to those of the structurally most similar compounds known from WO 2012/028579 A1. These tests were carried out by the pre- and post-emergence method under the conditions mentioned under item 1 and item 2. Here, the herbicidal activity against various harmful plants and the damage of some important crop plants were compared at different dosages.

Data set [1] concerns Lolium multiflorum. In words: Post-emergence herbicidal action. The settings on record: for herbicidal activity against harmful plants LOMU: Dosage 80/ha (Table P). How it is done: as §1, §2
Data set [2] deals with Avena fatua. In words: Pre-emergence herbicidal action.
Excerpt: (§3) Seeds of monocotyledonous and dicotyledonous weed plants and crop plants are laid out in wood-fiber pots in sandy loam and covered with soil. The compounds according to the invention, formulated in the form of wettable powders (WP) or as emulsion concentrates (EC), are then applied to the surface of the soil cover in the form of an aqueous suspension or emulsion at a water application rate equating to 600 to 800 l/ha, with addition of 0.2% wetting agent. After the treatment, the pots are placed in a greenhouse and kept under good growth conditions for the test plants. The damage to the test plants is assessed visually after a test period of 3 weeks by comparison with untreated controls (herbicidal activity in percent (%): 100% activity=the plants have died, 0% activity=like control plants). Here, for example, compounds No. 1-163, 1-171, 1-172, 1-283, 1-284, 1-294, 1-295, 1-334, 10-001 and 11-343, at an application rate of 320 g/ha, have an activity of at least 80% against Veronica persica.
as §2

The subject of data set [3] is Brassica napus (Oilseed Rape). As to the kind of experiment: Post-emergence, damage of crop plants. The procedure: as §1, §2
Data set [4] deals with Alopecurus myosuroides. In words: Post-emergence herbicidal action. Conditions: Dosage 80/ha (Table P). How it is done: as §1, §2
The subject of data set [5] is Avena fatua. In words: Post-emergence herbicidal action. Conditions: Dosage 80/ha (Table P). The procedure:
as §1, §2

Data set [6] deals with Alopecurus myosuroides. In words: Pre-emergence herbicidal action. The settings on record: Dosage 320/ha (Table D).
Excerpt: as §3, §2

The test system of data set [7] is Lolium multiflorum. As to the kind of experiment: Pre-emergence herbicidal action. Conditions: Dosage 320/ha (Table E).
Excerpt: as §3, §2

The subject of the next data set is Polygonum convolvulus. As to the kind of experiment: Pre-emergence herbicidal action. The settings on record: Dosage 320/ha (Table E).
Excerpt: as §3, §2

Data set [8] relates to Brassica napus (Oilseed Rape). As to the kind of experiment: Pre-emergence, damage of crop plants. Conditions: for damage of crop plants, Crop plant BRSNW: Dosage 320/ha (Table D).
Excerpt: as §3, §2

The test system of data set [9] is Triticum aestivum (Wheat). In words: Pre-emergence, damage of crop plants. The settings on record: for damage of crop plants, Crop plant TRZAS: Dosage 320/ha (Table E).
Excerpt: as §3, §2

Data set [10] concerns Oryza sativa (Rice). In words: Pre-emergence, damage of crop plants. The settings on record: for damage of crop plants, Crop plant ORYZA: Dosage 320/ha (Table E).
Excerpt: as §3, §2

A further data set has as its system Matricaria inodora. As to the kind of experiment: Pre-emergence herbicidal action. The settings on record: Dosage 320/ha (Table C).
Excerpt: as §3, §2

For a further data set, the system named is Amaranthus retroflexus. As to the kind of experiment: Pre-emergence herbicidal action. Conditions: Dosage 320/ha (Table C).
Excerpt: as §3, §2

A further data set deals with Abutilon theophrasti. As to the kind of experiment: Pre-emergence herbicidal action. The settings on record: Dosage 320/ha (Table C).
Excerpt: as §3, §2

In another data set the test system is Echinochloa crus galli. In words: Pre-emergence herbicidal action. Conditions: Dosage 320/ha (Table C).
Excerpt: as §3, §2

Data set [11] concerns Triticum aestivum (Wheat). In words: Post-emergence, damage of crop plants. The procedure:
as §1, §2

Data set [12] relates to Oryza sativa (Rice). In words: Post-emergence, damage of crop plants. The procedure:
as §1, §2

The test system of another data set is Zea mays (Corn). In words: Post-emergence, damage of crop plants. Conditions: Dosage 80 g/ha (Table U). How it is done:
as §1, §2

The structures appear in SMILES notation.

This is an account of results in US9758494B2, “N-(oxazol-2-yl)-aryl-carboxylic acid amides and use thereof as herbicides” (BAYER CROPSCIENCE AG, priority 2012, dated 2017).

Turning to `CCn1nnnc1NC(=O)c1ccc(S(C)(=O)=O)c([S+](C)[O-])c1Cl` (stereo not shown) [WO 2012/028579, No. 5-294], the “herbicidal activity against harmful plants SETVI” value in the data set on Setaria viridis (Dosage 20/ha (Table R)) came to 0%. In the data set on Lolium multiflorum [1] (Dosage 20/ha (Table R)), the “herbicidal activity against harmful plants LOLMU” value was determined as 10%.

For `CCS(=O)(=O)c1ccc(C(=O)Nc2ncnn2C)c(Cl)c1C1=NOC(CC#N)C1` (stereo not shown) [WO 2012/028579, No. 1-267], the “Herbicidal activity against AVEFA” value in the data set on Avena fatua [2] (80 g/ha (Table J)) and in the data set with Avena fatua [2] (320 g/ha (Table J)) was 0% throughout. The “Damage of BRSNW” value in data set [3] (20 g/ha (Table V)) and in data set [3] (80 g/ha (Table V)) was 90% throughout.

`Cc1c(C(=O)Nc2nnnn2-c2ccccc2)ccc(S(C)(=O)=O)c1S(C)(=O)=O` [WO 2012/028579, No. 6-189]: the “herbicidal activity against harmful plants ALOMY” value in the data set with Alopecurus myosuroides [4] is 0%. Besides, the “herbicidal activity against harmful plants SETVI” value in the data set on Setaria viridis (Dosage 80/ha (Table P)) was found to be 20%. Besides, the “herbicidal activity against harmful plants AVEFA” value with Avena fatua [5] came out at 0%. Further, the “herbicidal activity against harmful plants LOMU” value in the data set with Lolium multiflorum [1] worked out at 0%. Also, in the data set with Alopecurus myosuroides [6], the “herbicidal activity, Harmful plant ALOMY” value stood at 0%. Further, the “herbicidal activity, Harmful plant LOLMU” value in the data set with Lolium multiflorum [7] came to 70%. The “herbicidal activity, Harmful plant POLCO” value in the data set with Polygonum convolvulus turned out to be 0%. Further, the “damage of crop plants, Crop plant BRSNW” value in [8] came out at 90%. Besides, the “damage of crop plants, Crop plant TRZAS” value in data set [9] is on record as 30%. Moreover, the “damage of crop plants, Crop plant ORYZA” value in the data set with Oryza sativa (Rice) [10] turned out to be 80%.

Regarding `Cc1c(C(=O)Nc2ncco2)ccc(S(C)(=O)=O)c1S(C)(=O)=O` [1-163], the “herbicidal activity against harmful plants ALOMY” value with Alopecurus myosuroides [4] is on record as 60%. The “herbicidal activity against harmful plants SETVI” value with Setaria viridis (Dosage 80/ha (Table P)) is on record as 100%. Moreover, the “herbicidal activity against harmful plants AVEFA” value in the data set with Avena fatua [5] is 40%. For the same compound, the “herbicidal activity against harmful plants LOMU” value in the data set with Lolium multiflorum [1] is given as 20%. The “herbicidal activity, Harmful plant ALOMY” value in the data set on Alopecurus myosuroides [6] is reported as 30%. Further, in the data set on Matricaria inodora, the “herbicidal activity against harmful plants MATIN” value was 100%. The “herbicidal activity against harmful plants AMARE” value in the data set on Amaranthus retroflexus turned out to be 90%. For the same compound, in the data set on Abutilon theophrasti, the “herbicidal activity against harmful plants ABUTH” value is listed as 100%. For the same compound, the “herbicidal activity, Harmful plant LOLMU” value with Lolium multiflorum [7] stood at 100%. The “herbicidal activity, Harmful plant POLCO” value in the data set with Polygonum convolvulus is on record as 70%. Besides, in the data set with Echinochloa crus galli, the “herbicidal activity against harmful plants ECHCG” value is listed as 70%. Also, the “damage of crop plants, Crop plant BRSNW” value in data set [8] was found to be 10%. In addition, the “damage of crop plants, Crop plant TRZAS” value in data set [9] was 0%. For the same compound, the “damage of crop plants, Crop plant ORYZA” value with Oryza sativa (Rice) [10] worked out at 0%. In data set [3] (Dosage 20/ha (Table O)), the “damage of crop plants BRSNW” value was determined as 40%. In addition, the “damage of crop plants TRZAS” value in [11] (Dosage 20/ha (Table O)) worked out at 20%. In addition, the “damage of crop plants ORYZA” value in the data set on Oryza sativa (Rice) [12] (Dosage 20/ha (Table O)) was 0%.

Take `CCn1nnnc1NC(=O)c1ccc(C(F)(F)F)c(SC)c1C` [WO 2012/028579, No. 5-146]: the “damage of crop plants BRSNW” value is listed as 90% in data set [8] (Dosage 80/ha (Table B)) and 100% in data set [3] (Dosage 80/ha (Table N)). Besides, the results for the “damage of crop plants TRZAS” value in [9] (Dosage 80/ha (Table B)) and in data set [11] (Dosage 80/ha (Table N)) were 30% and 60%, respectively. Besides, the “damage of crop plants ORYZA” value in the data set with Oryza sativa (Rice) [10] (Dosage 80/ha (Table B)) amounted to 90%; in the data set on Oryza sativa (Rice) [12] (Dosage 80/ha (Table N)) it was 80%.

`CCS(=O)(=O)c1ccc(C(=O)Nc2nc(C)c(C)o2)c(Cl)c1C1=NOC(CC#N)C1` (stereo not shown) [11-343]: the “Herbicidal activity against AVEFA” value with Avena fatua [2] (20 g/ha (Table K)) was found to be 80%; with Avena fatua [2] (20 g/ha (Table L)), 80%; with Avena fatua [2] (80 g/ha (Table J)), 80%; with Avena fatua [2] (80 g/ha (Table K)) it was 80%; in the data set with Avena fatua [2] (80 g/ha (Table L)) it was 80%; with Avena fatua [2] (320 g/ha (Table J)) it was 100%. The “Damage of BRSNW” value in data set [3] (5 g/ha (Table W)), in data set [3] (20 g/ha (Table V)), in [3] (20 g/ha (Table W)), in data set [3] (20 g/ha (Table X)), in [3] (80 g/ha (Table V)) and in [3] (80 g/ha (Table X)) was 0% throughout.

As to `Cn1nnnc1NC(=O)c1ccc(C(F)(F)F)nc1Cl` [WO 2012/028579, No. 8-10], the “Damage of ORYZA” value in the data set with Oryza sativa (Rice) [10] (20 g/ha (Table I)) is on record as 50%; in the data set on Oryza sativa (Rice) [10] (80 g/ha (Table I)) it was 90%. Further, the “damage of crop plants ZEAMX” value in the data set on Zea mays (Corn) came out at 90%. Moreover, in the data set with Oryza sativa (Rice) [12] (Dosage 80 g/ha (Table U)), the “damage of crop plants ORYZA” value was determined as 90%.
